# What was measured:
# [1] = Intraperitoneal LD50 (Table 2); type: in vivo
# Oral LD50 (Table 3) = type: in vivo
# [2] = tested on: maximal electroshock seizures; experiment: Maximal electroshock seizure test; type: in vivo; conditions: albino mice, intraperitoneal, 140 minutes after injection of test compound
# From the text: Effect Against Maximal Electroshock Seizures. […] Given intraperitoneally to albino mice these compounds have afforded complete protection from maximal electroshock seizures for several hours. To test the maximal seizure anticonvulsant properties in albino mice weighing approximately 25 grams, first an electrical current was delivered via cranial electrodes at a voltage strength which induced a typical maximal electroconvulsant seizure in all the mice. Maximal tonic electrochock seizures were induced with 2 to 7 milliamperes being discharged at 18 volts, and at a frequency of 1000 per second. Abolition of the hindlimb tonic extension component of the seizure was defined as protection in this maximal electroshock test (L. S. Goodman et al., Jour. Pharm. Exper. Therap., 108: 168, 1953). The apparatus used was structured so that the current administered was independent of external resistance. There were 10 animals per group, and they were exposed to electroshock seizures at 20, 80 and 140 minutes after injection of the test compounds. The mice received graded doses of the compounds, and the dose protecting 50% of the animals was calculated biometrically.
# [3] = tested on: pentylenetetrazol-induced seizures; experiment: Pentylenetetrazol (Metrazol) seizure test; type: in vivo; conditions: pentylenetetrazol 120 mg/kg i.p. 30 minutes after compound
# Procedure: Effect Against Pentylenetetrazol (Metrazol) Seizures. […] The pentylenetetrazol (metrazol), 120 mg/kg, was injected intraperitoneally 30 minutes after the oral administration of the respective graded doses of the compounds. Protection in this test was defined as a failure to detect even a single episode of clonic spasms of at least 5 seconds duration during a 30 minute period following the injection of the metrazol (F. M. Berger, 78:277, 1951). […] Exper. Med. Biol., against pentylenetetrazol seizures ([…] al., Epilepsia, 19: 193-408, 1978).
# nerve after-discharge = experiment: After-discharge on electrical nerve stimulation (neuropharmacological tests in cat and frog); conditions: cat and frog demonstrations
# From the text: However, the molecular mechanism of the anticonvulsant action within neuronal cells remains unknown.
# [4] = tested on: cat soleus muscle nerve preparation; experiment: Cat soleus muscle nerve preparation, neuromuscular function; type: in vivo; conditions: for Single impulse transmission: cat soleus muscle nerve preparation
# From the text: Pirfenidone: Effect on Neuromuscular Function of the Cat Soleus Muscle Nerve Preparation. […] The action resembles that of phenytoin (J. A. Wada, Arch. Neurol., 34: 389–395, 1977).
# [5] = tested on: Bullfrog sciatic nerve trunk (de-sheathed); experiment: Frog sciatic nerve trunk high frequency stimulation; conditions: 10 mM
# From the text: Pirfenidone: Effect on Frog Sciatic Nerve Trunk High Frequency Stimulation. Bullfrog sciatic nerve trunk (de-sheathed) was stimulated with trains of pulses at 200 Hertz in order to see if pirfenidone affected the nerve's ability to conduct high frequency impulses. […] Drugs that cause “use-dependent” block (high frequency failure) are generally regarded as potential anti-epileptic drugs.
# [6] = Plasma concentration after oral dosing in man; type: in vivo
# Procedure: In laboratory animals or in man, pirfenidone is well absorbed after oral administration. Plasma pirfenidone concentrations in man peak 1 to 4 hours after dosing. Metabolically, first order kinetics prevail over a daily dose range of 1200 to 3600 milligrams of pirfenidone in divided dosage (t.i.d.). Pirfenidone is cleared primarily by hepatic metabolism (S. Giri et al., Amer. Thoracic Soc. International Conf., Apr. 24-29, 1998) mainly hydroxylation and conjugation, and excreted primarily in the urine. […] The highly rapid and efficient oral bioavailability of pirfenidone in humans contrasts with that of oral phenytoin. In man, absorption of phenytoin after oral ingestion is slow, often variable and can be incomplete so that peak or effective concentrations in plasma and tissues may be delayed for 3 or more hours (E. Perucca and […], “Handbook of Exper. Pharmacol.,” Vol. 74: 831-855, 1985, Springer-Verlag, Berlin.)
# [7] = tested on: pentylenetetrazol-induced seizures; conditions: literature (Krall et al.); cited from earlier work
# [8] = man; cited from earlier work
Structure (SMILES),I.P. LD50 [1] [mg/kg],ORAL LD50 (Oral LD50 (Table 3)) [mg/kg],I.P. ED50 (dose protecting 50% of mice against maximal electroshock seizures) [2],ORAL ED50 (dose protecting 50% of mice against pentylenetetrazol-induced seizures) [3],Block of the classical after-discharge when a nerve is electronically stimulated (nerve after-discharge),Post-tetanic potentiation (PTP) ([4]; 50 mg/kg intravenously),Single impulse transmission [4],Conduction of high frequency impulses (200 Hertz pulse trains) [5],Local anesthesia in the nerve [5],Time of peak plasma concentration after dosing [6] [h],Activity against pentylenetetrazol seizures [7],Delay of peak or effective concentrations in plasma and tissues after oral ingestion [8] [h]
"O=c1ccccn1-c1ccccc1 [1-phenyl-2-(1H)-pyridone, reference compound]",>500,540 ± 124,No Activity,No Activity,–,–,–,–,–,–,–,–
Cc1cccn(-c2ccccc2)c1=O [3-methyl-1-phenyl-2-(1H)-pyridone],>500,650 ± 110,No Activity,No Activity,–,–,–,–,–,–,–,–
CCc1ccc(=O)n(-c2ccccc2)c1 [5-ethyl-1-phenyl-2-(1H)-pyridone],500 ± 61,425 ± 48,60 ± 10 mg/kg,285 ± 29 mg/kg,–,–,–,–,–,–,–,–
Cc1ccc(=O)n(-c2ccccc2)c1 [5-methyl-1-phenyl-2-(1H)-pyridone],600 ± 43,610 ± 34,85 ± 11 mg/kg,325 ± 41 mg/kg,completely block,suppresses the post-tetanic potentiation,Neither pirfenidone nor phenytoin impair,caused definite high frequency failure,did not cause local anesthesia,1 to 4,–,–
"O=C1NC(=O)C(c2ccccc2)(c2ccccc2)N1 [phenytoin (Dilantin), phenytoin, reference compound]",200 ± 45,490 ± 35,50 ± 15 mg/kg,No Activity,completely block,–,Neither pirfenidone nor phenytoin impair,–,–,–,inactive,≥ 3

# Reference: US6956044B1, “Compositions and methods for treatment of epilepsy” (priority 2000, dated 2005)
